This test relates to B. cepacia (ATCC 25416). The test can be described thus: Minimum Effective Concentration (MEC) Test Method. It is filed as cell-based, Burkholderia cepacia. Conditions: for MEC of antimicrobial agent Lactic Acid (Purac FCC 88) / MEC of antimicrobial agent Sodium Benzoate / MEC of antimicrobial agent Caprylhydroxamic Acid (Zeastat) / MEC of antimicrobial agent Hydroxyacetophenone (SymSave H): B. cepacia, 24 hours; for performance as antimicrobial boosting agent: summary in words of the MEC testing of Table 1. The procedure:
Initial testing was conducted to screen a variety of surfactants in researching for potential antimicrobial boosting agents. The initial testing followed the methodology as described in the Minimum Effective Concentration (“MEC”) Test Method described in the Test Methods section herein. To summarize, the MEC testing paired a variety of potential antimicrobial boosting agents with a variety of known antimicrobial agents to determine the MEC of the respective antimicrobial agent that must be used to provide an effective antimicrobial result, as described in further detail in the Test Methods section. The more positive the boosting characteristics of an antimicrobial boosting agent, then the lower the MEC that would be required for the paired antimicrobial agent. It is to be noted that the molarities listed in Table 1 are approximate values that were calculated based on the estimated activities of the ingredients and the molecular weights of the active ingredients. In instances where an exact activity was not available for an ingredient blend, the ingredient blend activity was estimated as the average of the upper and lower limits of the specification provided by the manufacturer of such blend. In instances where an exact molecular weight could not be calculated (for example, in compounds derived from a natural oil like coconut oil), the molecular weight of the active was estimated based on a weighted average of the molecular weights of the constituent species.
The Minimum Effective Concentration Test Method discussed herein began by adding B. cepacia (ATCC 25416) culture at a final concentration of approximately 5×10^6 CFU/mL to the composition to be challenged. The challenged composition was then allowed to incubate at room temperature for 24 hours. After 24 hours, a preservative neutralizing broth was added to the mixture and measurements were subsequently taken to determine the concentration of B. cepacia still remaining after exposure to the test composition.
The Minimum Effective Concentration was determined by completing the process described above on a series of compositions with the same concentration of antimicrobial boosting agent, but with different concentrations of antimicrobial agent. The Minimum Effective Concentration of antimicrobial agent for any given value of antimicrobial boosting agent was defined as the minimum concentration of antimicrobial agent required to reduce the concentration of B. cepacia to a level below the detection threshold for the test method, which was approximately 100 CFU/mL. In instances where multiple rounds of Minimum Effective Concentration testing were completed, the value reported is the mean of the Minimum Effective Concentration values generated by each individual series of tests.

Where [1] appears, read: paired with the labelled potential boosting agent at 5 mmol/L.
[2] abbreviates: no antimicrobial boosting agent.

For the compound `CCCCCCCC[N+](C)(C)[O-]` [Techmine 280, Octyldimethylamine Oxide], the “MEC of antimicrobial agent Lactic Acid (Purac FCC 88)” value (“MEC … (Purac FCC 88)” for short) under setting [1] is on record as 40 mmol/L. `O=C([O-])c1ccccc1.[Na+]` [Sodium Benzoate]: under setting [2], the “MEC of antimicrobial agent Sodium Benzoate” value turned out to be 7.5 mmol/L. Take `CCCCCCCC(=O)NO` [Zeastat, Caprylhydroxamic Acid]: the “MEC of antimicrobial agent Caprylhydroxamic Acid (Zeastat)” value (shortened to “MEC … (Zeastat)”) under setting [2] came to 10 mmol/L. On to “PEG-40 Hydrogenated Castor Oil [Tagat CH40]”, for which the “performance as antimicrobial boosting agent” value (“performance” for short) was “did not perform well as antimicrobial boosting agents”. Also, under setting [1], the “MEC … (Zeastat)” value was determined as 10 mmol/L, the “MEC of antimicrobial agent Hydroxyacetophenone (SymSave H)” value (shortened to “MEC … (SymSave H)”) is reported as more than 20 mmol/L and the “MEC … (Purac FCC 88)” value is more than 60 mmol/L. Consider Coco-Glucoside [Plantacare 818 UP], for which the “performance” value was “did not perform well as antimicrobial boosting agents”. Further, under setting [1], the “MEC … (Purac FCC 88)” value is given as more than 60 mmol/L. Take `CCCCCCCCCCCCCCCC[N+](C)(C)CC(=O)[O-]` [Mackam CET, Cetyl Betaine]: under setting [1], the “MEC … (Purac FCC 88)” value worked out at 40 mmol/L. Consider “Disodium Cocoamphodiacetate [Mackam 2C-75]”, for which the “performance” value is “provided at least some antimicrobial boosting effect”. Moreover, under setting [1], the “MEC … (Zeastat)” value turned out to be 4 mmol/L, the “MEC … (SymSave H)” value is reported as 10 mmol/L, the “MEC … (Purac FCC 88)” value came out at 30 mmol/L and the “MEC of antimicrobial agent Sodium Benzoate” value came to 2.5 mmol/L. As for Sodium Cocoamphoacetate [ColaTeric 1C], under setting [1], the “MEC … (SymSave H)” value amounted to 15 mmol/L and the “MEC … (Purac FCC 88)” value is listed as 30 mmol/L. Regarding `CCCCCCCCCCCC(=O)OC(C)C(=O)OC(C)C(=O)[O-].[Na+]` (centres unmarked) [Dermosoft SLL, Sodium Lauroyl Lactylate], under setting [1], the “MEC … (Purac FCC 88)” value was 30 mmol/L. In the case of Polysorbate 20 [Eumulgin SML-20], the “performance” value is “did not perform well as antimicrobial boosting agents”. For the same compound, under setting [1], the “MEC … (Zeastat)” value came out at 10 mmol/L, the “MEC … (SymSave H)” value was more than 20 mmol/L, the “MEC … (Purac FCC 88)” value is 50 mmol/L and the “MEC of antimicrobial agent Sodium Benzoate” value is listed as 5 mmol/L. For the compound Cocamidopropyl Betaine [Dehyton PK-45], under setting [1], the “MEC of antimicrobial agent Sodium Benzoate” value was more than 15 mmol/L. Regarding “Caprylyl/Capryl Glucoside [Plantaren 810 UP]”, the “MEC … (Purac FCC 88)” value under setting [1] is on record as 60 mmol/L.

For “Sodium Cocoyl Isethionate [Hostapon SCI 85 P]”, the “performance” value is reported as “did not perform well as antimicrobial boosting agents”. In addition, the “MEC … (Purac FCC 88)” value under setting [1] is 50 mmol/L. As for “Disodium Cocoamphodipropionate [Mackam 2CSF-40CG]”, the “performance” value was “provided at least some antimicrobial boosting effect”. Also, under setting [1], the “MEC … (Zeastat)” value was 6 mmol/L, the “MEC … (SymSave H)” value worked out at 10 mmol/L, the “MEC … (Purac FCC 88)” value is recorded as less than 10 mmol/L and the “MEC of antimicrobial agent Sodium Benzoate” value is 2.5 mmol/L. Turning to “Sodium Laurylglucosides Hydroxypropylsulfonate [Suga Nate 160]”, the “MEC … (Purac FCC 88)” value under setting [1] was more than 50 mmol/L. As to “Disodium Capryloamphodiacetate [Sopalteric DSCYA-27]”, the “performance” value is listed as “provided at least some antimicrobial boosting effect”. The “MEC … (Purac FCC 88)” value under setting [1] worked out at 30 mmol/L. Consider Cocamide DIPA [Cola Liquid DC], for which the “performance” value is listed as “did not perform well as antimicrobial boosting agents”. Further, under setting [1], the “MEC … (SymSave H)” value was determined as 20 mmol/L and the “MEC … (Purac FCC 88)” value is “Unstable”. As to “Sodium Cocoamphoacetate [Mackam HPC-32L]”, under setting [1], the “MEC … (Purac FCC 88)” value is 40 mmol/L. As for Lauryl Glucoside [Plantaren 1200 N UP], under setting [1], the “MEC … (Purac FCC 88)” value is more than 30 mmol/L and the “MEC of antimicrobial agent Sodium Benzoate” value was 10 mmol/L. “PEG-80 Sorbitan Laurate [Alkamuls PSML-80/72LD]”: the “MEC … (Purac FCC 88)” value under setting [1] is 50 mmol/L. For sodium cocoamphoacetate, the “performance” value is “provided at least some antimicrobial boosting effect”. In the case of “Sodium Cocoamphopropionate [Rewoteric AM KSF 40]”, under setting [1], the “MEC … (Zeastat)” value was found to be 4 mmol/L, the “MEC … (SymSave H)” value came to 10 mmol/L, the “MEC … (Purac FCC 88)” value was less than 10 mmol/L and the “MEC of antimicrobial agent Sodium Benzoate” value stood at 1.8 mmol/L.

As for “Disodium PEG-12 Dimethicone Sulfosuccinate [Mackanate Ultra Si]”, the “MEC … (Purac FCC 88)” value under setting [1] is recorded as 40 mmol/L. Turning to `C[N+](C)(CCO)CC(O)C[N+](C)(C)CCO.[Cl-].[Cl-]` [Cola Moist 200, Hydroxypropyl Bis-Hydroxyethyldimonium Chloride], under setting [1], the “MEC … (Purac FCC 88)” value came to 50 mmol/L. The same measure, in the same setting: the value for “Laureth-3 Phosphate [Dermalcare MAP L-130]” was 40 mmol/L. For sodium cocoamphodipropionate, the “performance” value is on record as “provided at least some antimicrobial boosting effect”. Consider `CC(O)C(=O)O` (centres unmarked) [Purac FCC 88, Lactic Acid], for which, under setting [2], the “MEC … (Purac FCC 88)” value is 60 mmol/L. With `CCCCCCCC[N+](C)(C)CC(=O)[O-]` [Mackam BW-139, Octyl Betaine], under setting [1], the “MEC … (Purac FCC 88)” value turned out to be 40 mmol/L. Regarding “Sodium Methyl Cocoyl Taurate [Hostapon CT Paste]”, under setting [1], the “MEC of antimicrobial agent Sodium Benzoate” value worked out at 2.5 mmol/L. In the case of “Sodium Lauroamphoacetate [Sopalteric SLA-32]”, the “performance” value was “provided at least some antimicrobial boosting effect”. For the same compound, the “MEC … (Purac FCC 88)” value under setting [1] was 20 mmol/L.

These data come from patent US11805778B2, “Composition including an antimicrobial boosting agent including an amphocarboxylate and methods of increasing the antimicrobial effectiveness of a composition” (KIMBERLY-CLARK WORLDWIDE, INC., priority 2018, dated 2023).
